This note sets out measurements from patent US9376442B2, “Methylpyrrolopyrimidinecarboxamides” (Takeda GmbH, priority 2009, dated 2016).

In this test the target is T1, PDE5A1 (Homo sapiens, UniProt O76074).
T1 construct: from tissue; host or cells: human platelets from fresh donor blood (10,000 x g supernatant of sonicated lysate)
The test is described as follows: Inhibition of type 5 phosphodiesterase (PDE5) activity, modified SPA test with human platelet lysate. The format is biochemical. The following applies: 0.5 μM cGMP, read-out: PDE5A1 inhibitory values [measured as −log IC50 (mol/l)] (converted). The procedure, abridged: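 Enzyme source is lysate from human platelets (10,000 g supernatant). Compound preincubated 5 min at 37° C in Tris pH 7.4 containing 1 μM motapizone and 10 nM of a PDE2 inhibitor. Reaction started with 0.5 μM cGMP ([3H] tracer) and run 15 min; SPA read-out, IC50 by non-linear regression.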

`COc1cc(-c2ncnc3c(C(=O)N[C@@H]4CN(C(=O)CO)C[C@H]4O)c(C)[nH]c23)c(OCC2CC2)cc1F` (relative stereo) [Example F113, 4-[2-(Cyclopropylmethoxy)-4-fluoro-5-methoxyphenyl]-N-[(3R*,4R*)-1-glycoloyl-4-hydroxypyrrolidin-3-yl]-6-methyl-5H-pyrrolo[3,2-d]pyrimidine-7-carboxamide]: the IC50 was below 1 nM. In the case of `COc1cc(-c2ncnc3c(C(=O)N[C@@H]4CN(C(=O)[C@H](C)O)C[C@H]4O)c(C)[nH]c23)c(OCC2CC2)cc1F` (relative stereo) [Example F114, 4-[2-(Cyclopropylmethoxy)-4-fluoro-5-methoxyphenyl]-N-{(3R*,4R*)-4-hydroxy-1-[(2S)-2-hydroxypropanoyl]pyrrolidin-3-yl}-6-methyl-5H-pyrrolo[3,2-d]pyrimidine-7-carboxamide], the IC50 is below 1 nM.

On to `COc1cc(OCC2CC2)c(-c2ncnc3c(C(=O)N[C@@H]4CN(C(=O)CO)C[C@H]4O)c(C)[nH]c23)cc1F` (relative stereo) [Example F117, 4-[2-(Cyclopropylmethoxy)-5-fluoro-4-methoxyphenyl]-N-[(3R*,4R*)-1-glycoloyl-4-hydroxypyrrolidin-3-yl]-6-methyl-5H-pyrrolo[3,2-d]pyrimidine-7-carboxamide], for which the IC50 was below 1 nM. In the case of `COc1cc(OCC2CC2)c(-c2ncnc3c(C(=O)N[C@@H]4CN(C(=O)[C@H](C)O)C[C@H]4O)c(C)[nH]c23)cc1F` (relative stereo) [Example F118, 4-[2-(Cyclopropylmethoxy)-5-fluoro-4-methoxyphenyl]-N-{(3R*,4R*)-4-hydroxy-1-[(2S)-2-hydroxypropanoyl]pyrrolidin-3-yl}-6-methyl-5H-pyrrolo[3,2-d]pyrimidine-7-carboxamide], the IC50 is below 1 nM. `COc1ccc(OCC2CC2)c(-c2ncnc3c(C(=O)N[C@@H]4CN(C(=O)CO)C[C@H]4O)c(C)[nH]c23)c1` (relative stereo) [Example F119, 4-[2-(Cyclopropylmethoxy)-5-methoxyphenyl]-N-[(3R*,4R*)-1-glycoloyl-4-hydroxypyrrolidin-3-yl]-6-methyl-5H-pyrrolo[3,2-d]pyrimidine-7-carboxamide]: the IC50 is 1 to 10 nM. As for `CC(=O)N1CCC(NC(=O)c2c(C)[nH]c3c(-c4c(OCC5CC5)ccc5c4OCO5)ncnc23)CC1` [Example E1, N-(1-Acetylpiperidin-4-yl)-4-[5-(cyclopropylmethoxy)-1,3-benzodioxol-4-yl]-6-methyl-5H-pyrrolo[3,2-d]pyrimidine-7-carboxamide], the IC50 was below 1 nM. Under `CCC(=O)N1CCC(NC(=O)c2c(C)[nH]c3c(-c4c(OCC5CC5)ccc5c4OCO5)ncnc23)CC1` [Example E2, 4-[5-(Cyclopropylmethoxy)-1,3-benzodioxol-4-yl]-6-methyl-N-(1-propionylpiperidin-4-yl)-5H-pyrrolo[3,2-d]pyrimidine-7-carboxamide] stands below 1 nM.

With `COCC(=O)N1CCC(NC(=O)c2c(C)[nH]c3c(-c4c(OCC5CC5)ccc5c4OCO5)ncnc23)CC1` [Example E3, 4-[5-(Cyclopropylmethoxy)-1,3-benzodioxol-4-yl]-N-[1-(methoxyacetyl)piperidin-4-yl]-6-methyl-5H-pyrrolo[3,2-d]pyrimidine-7-carboxamide], the IC50 is below 1 nM. Turning to `CCOC(=O)N1CCC(NC(=O)c2c(C)[nH]c3c(-c4c(OCC5CC5)ccc5c4OCO5)ncnc23)CC1` [Example E4, Ethyl 4-[({4-[5-(cyclopropylmethoxy)-1,3-benzodioxol-4-yl]-6-methyl-5H-pyrrolo[3,2-d]pyrimidin-7-yl}carbonyl)amino]piperidine-1-carboxylate], the IC50 is below 1 nM.

On to `CC(=O)N[C@H]1CC[C@H](NC(=O)c2c(C)[nH]c3c(-c4c(OCC5CC5)ccc5c4OCO5)ncnc23)CC1` [Example E5, N-(trans-4-acetamidocyclohexyl)-4-[5-(cyclopropylmethoxy)-1,3-benzodioxol-4-yl]-6-methyl-5H-pyrrolo[3,2-d]pyrimidine-7-carboxamide], for which the IC50 is below 1 nM. Under `CCC(=O)N[C@H]1CC[C@H](NC(=O)c2c(C)[nH]c3c(-c4c(OCC5CC5)ccc5c4OCO5)ncnc23)CC1` [Example E6, 4-[5-(Cyclopropylmethoxy)-1,3-benzodioxol-4-yl]-6-methyl-N-[trans-4-(propionylamino)cyclohexyl]-5H-pyrrolo[3,2-d]pyrimidine-7-carboxamide] stands below 1 nM.

For the compound `COCC(=O)N[C@H]1CC[C@H](NC(=O)c2c(C)[nH]c3c(-c4c(OCC5CC5)ccc5c4OCO5)ncnc23)CC1` [Example E7, 4-[5-(Cyclopropylmethoxy)-1,3-benzodioxol-4-yl]-N-{trans-4-[(methoxyacetyl)amino]cyclohexyl}-6-methyl-5H-pyrrolo[3,2-d]pyrimidine-7-carboxamide], the IC50 was below 1 nM. `CCOC(=O)N[C@H]1CC[C@H](NC(=O)c2c(C)[nH]c3c(-c4c(OCC5CC5)ccc5c4OCO5)ncnc23)CC1` [Example E8, Ethyl {trans-4-[({4-[5-(cyclopropylmethoxy)-1,3-benzodioxol-4-yl]-6-methyl-5H-pyrrolo[3,2-d]pyrimidin-7-yl}carbonyl)amino]cyclohexyl}carbamate]: the IC50 was below 1 nM.

Take `CC(=O)N[C@H]1CC[C@@H](NC(=O)c2c(C)[nH]c3c(-c4c(OCC5CC5)ccc5c4OCO5)ncnc23)CC1` [Example E9, N-(cis-4-acetamidocyclohexyl)-4-[5-(cyclopropylmethoxy)-1,3-benzodioxol-4-yl]-6-methyl-5H-pyrrolo[3,2-d]pyrimidine-7-carboxamide]: the IC50 was below 1 nM. The value for `CCC(=O)N[C@H]1CC[C@@H](NC(=O)c2c(C)[nH]c3c(-c4c(OCC5CC5)ccc5c4OCO5)ncnc23)CC1` [Example E10, 4-[5-(Cyclopropylmethoxy)-1,3-benzodioxol-4-yl]-6-methyl-N-[cis-4-(propionylamino)cyclohexyl]-5H-pyrrolo[3,2-d]pyrimidine-7-carboxamide] was below 1 nM; that for `COCC(=O)N[C@H]1CC[C@@H](NC(=O)c2c(C)[nH]c3c(-c4c(OCC5CC5)ccc5c4OCO5)ncnc23)CC1` [Example E11, 4-[5-(Cyclopropylmethoxy)-1,3-benzodioxol-4-yl]-N-{cis-4-[(methoxyacetyl)amino]cyclohexyl}-6-methyl-5H-pyrrolo[3,2-d]pyrimidine-7-carboxamide] was below 1 nM; that for `CCOC(=O)N[C@H]1CC[C@@H](NC(=O)c2c(C)[nH]c3c(-c4c(OCC5CC5)ccc5c4OCO5)ncnc23)CC1` [Example E12, Ethyl {cis-4-[({4-[5-(cyclopropylmethoxy)-1,3-benzodioxol-4-yl]-6-methyl-5H-pyrrolo[3,2-d]pyrimidin-7-yl}carbonyl)amino]cyclohexyl}carbamate] was below 1 nM. With `CC(=O)N1CC[C@@H](NC(=O)c2c(C)[nH]c3c(-c4c(OCC5CC5)ccc5c4OCO5)ncnc23)C1` [Example E13, N-[(3R)-1-acetylpyrrolidin-3-yl]-4-[5-(cyclopropylmethoxy)-1,3-benzodioxol-4-yl]-6-methyl-5H-pyrrolo[3,2-d]pyrimidine-7-carboxamide], the IC50 is below 1 nM.

`CCC(=O)N1CC[C@@H](NC(=O)c2c(C)[nH]c3c(-c4c(OCC5CC5)ccc5c4OCO5)ncnc23)C1` [Example E14, 4-[5-(Cyclopropylmethoxy)-1,3-benzodioxol-4-yl]-6-methyl-N-[(3R)-1-propionylpyrrolidin-3-yl]-5H-pyrrolo[3,2-d]pyrimidine-7-carboxamide]: the IC50 is below 1 nM. Under `COCC(=O)N1CC[C@@H](NC(=O)c2c(C)[nH]c3c(-c4c(OCC5CC5)ccc5c4OCO5)ncnc23)C1` [Example E15, 4-[5-(Cyclopropylmethoxy)-1,3-benzodioxol-4-yl]-N-[(3R)-1-(methoxyacetyl)pyrrolidin-3-yl]-6-methyl-5H-pyrrolo[3,2-d]pyrimidine-7-carboxamide] stands below 1 nM; under `CC(=O)N1CCC(NC(=O)c2c(C)[nH]c3c(-c4ccc(F)cc4OCC4CC4)ncnc23)CC1` [Example E19, N-(1-acetylpiperidin-4-yl)-4-[2-(cyclopropylmethoxy)-4-fluorophenyl]-6-methyl-5H-pyrrolo[3,2-d]pyrimidine-7-carboxamide], below 1 nM. With `CCC(=O)N1CCC(NC(=O)c2c(C)[nH]c3c(-c4ccc(F)cc4OCC4CC4)ncnc23)CC1` [Example E20, 4-[2-(Cyclopropylmethoxy)-4-fluorophenyl]-6-methyl-N-(1-propionylpiperidin-4-yl)-5H-pyrrolo[3,2-d]pyrimidine-7-carboxamide], the IC50 is below 1 nM. For `COCC(=O)N1CCC(NC(=O)c2c(C)[nH]c3c(-c4ccc(F)cc4OCC4CC4)ncnc23)CC1` [Example E21, 4-[2-(Cyclopropylmethoxy)-4-fluorophenyl]-N-[1-(methoxyacetyl)piperidin-4-yl]-6-methyl-5H-pyrrolo[3,2-d]pyrimidine-7-carboxamide], the IC50 was below 1 nM.

Take `CC(=O)N[C@H]1CC[C@H](NC(=O)c2c(C)[nH]c3c(-c4ccc(F)cc4OCC4CC4)ncnc23)CC1` [Example E22, N-(trans-4-acetamidocyclohexyl)-4-[2-(cyclopropylmethoxy)-4-fluorophenyl]-6-methyl-5H-pyrrolo[3,2-d]pyrimidine-7-carboxamide]: the IC50 was below 1 nM. Regarding `CCC(=O)N[C@H]1CC[C@H](NC(=O)c2c(C)[nH]c3c(-c4ccc(F)cc4OCC4CC4)ncnc23)CC1` [Example E23, 4-[2-(Cyclopropylmethoxy)-4-fluorophenyl]-6-methyl-N-[trans-4-(propionylamino)cyclohexyl]-5H-pyrrolo[3,2-d]pyrimidine-7-carboxamide], the IC50 is below 1 nM.
